These results are taken from ChEMBL document CHEMBL1138237, “Synthesis and anti-inflammatory/antioxidant activities of some new ring substituted 3-phenyl-1-(1,4-di-N-oxide quinoxalin-2-yl)-2-propen-1-one derivatives and of their 4,5-dihydro-(1H)-pyrazole analogues” (Bioorg Med Chem Lett, 2007).

The nature of test [1]: Antioxidant activity assessed as hydroxyl radical scavenging activity at 0.1 mM. The format is functional.
Test [2] relates to Radical scavenging activity. The test is described as follows: Antioxidant activity assessed as DPPH radical scavenging activity at 0.1 mM after 20 mins. Format: functional. On the technique in general: Loss of DPPH colour is used to gauge radical scavenging.
The test system of test [3] is Radical scavenging activity. Kind of test: Antioxidant activity assessed as DPPH radical scavenging activity at 0.05 mM after 60 mins. The format is functional.
The target of test [4] is T1, Seed linoleate 13S-lipoxygenase-1 (Glycine max, UniProt P08170).
T1 sequence (P08170 whole entry): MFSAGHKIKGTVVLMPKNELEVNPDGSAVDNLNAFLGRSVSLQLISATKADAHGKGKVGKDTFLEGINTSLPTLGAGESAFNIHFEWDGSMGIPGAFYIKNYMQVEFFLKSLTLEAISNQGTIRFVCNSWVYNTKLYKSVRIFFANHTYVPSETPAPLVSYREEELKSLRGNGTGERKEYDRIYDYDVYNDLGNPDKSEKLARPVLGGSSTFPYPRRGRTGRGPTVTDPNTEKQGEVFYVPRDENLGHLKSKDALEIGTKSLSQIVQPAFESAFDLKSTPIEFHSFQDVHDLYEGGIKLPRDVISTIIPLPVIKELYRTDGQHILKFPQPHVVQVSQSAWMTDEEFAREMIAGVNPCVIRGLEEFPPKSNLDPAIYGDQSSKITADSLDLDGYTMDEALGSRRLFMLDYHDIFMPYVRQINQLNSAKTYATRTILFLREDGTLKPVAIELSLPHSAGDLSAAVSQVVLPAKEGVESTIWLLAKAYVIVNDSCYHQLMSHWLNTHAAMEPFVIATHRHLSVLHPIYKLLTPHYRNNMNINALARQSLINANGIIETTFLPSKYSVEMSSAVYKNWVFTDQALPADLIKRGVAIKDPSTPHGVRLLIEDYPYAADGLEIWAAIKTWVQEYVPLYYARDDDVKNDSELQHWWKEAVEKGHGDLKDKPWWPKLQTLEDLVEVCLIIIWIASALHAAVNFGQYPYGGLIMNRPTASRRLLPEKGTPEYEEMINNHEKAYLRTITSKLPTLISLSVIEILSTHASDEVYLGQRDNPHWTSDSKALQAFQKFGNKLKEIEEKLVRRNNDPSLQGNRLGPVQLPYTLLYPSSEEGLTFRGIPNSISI
Kind of test: Inhibition of soybean lipoxygenase.

The next test concerns Rattus norvegicus. Kind of test: Antiinflammatory activity against carrageenan-induced paw edema rat model at 0.01 mmol/ml/kg. Format: functional. A general note: Carrageenan injected into the paw causes an acute inflammation.
Test [5] deals with Radical scavenging activity. The test is described as follows: Antioxidant activity assessed as DPPH radical scavenging activity at 0.1 mM after 60 mins. Format: functional.
Test [6] deals with Radical scavenging activity. The test is described as follows: Antioxidant activity assessed as DPPH radical scavenging activity at 0.05 mM after 20 mins. Format: functional.
Test [7] concerns the target T2, Seed linoleate 13S-lipoxygenase-1 (Glycine max) (UniProt P08170).
T2 sequence (whole entry): T1 sequence (P08170 whole entry)
Kind of test: Inhibition of soybean lipoxygenase at 100 uM.

Test [8] can be described thus: Antioxidant activity assessed as superoxide radical scavenging activity at 0.1 mM by nitroblue tetrazolium method. Format: functional.

The IC50 is the concentration at which inhibition is half-maximal. Higher therefore signals lower potency. For orientation: Inhibition means the relative decrease from the control value, in per cent. A low value points to a weak effect. Consider `COc1cc(C2CC(c3c(C)[n+]([O-])c4ccc(F)cc4[n+]3[O-])=NN2)cc(OC)c1OC` (stereo not given), for which the Activity in test [1] was determined as 99.3%; in test [2], 51.6%; in [3] it was 67%; in test [5] it was 68%; in [6] it was 58%. In test [4], this molecule registered an IC50 of 70 µM. For the same molecule, in the test with Rattus norvegicus, the Inhibition turned out to be 23.4%.
`CC(Cc1ccc(O)c(O)c1)C(C)Cc1ccc(O)c(O)c1` (stereo not given): the Activity in test [2] was 81%; in test [3] it was 72%; in test [5], 82.6%; in test [6] it was 68%.
Usually inhibition stands for the share of the control response that was lost under treatment. Higher therefore signals a strong effect. Consider `COc1ccc2c(c1)[n+]([O-])c(C(=O)/C=C/c1ccc(O)c(OC)c1)c(C)[n+]2[O-]`, for which the Activity amounted to 97.3% in [1]; 51% in test [2]; 59% in [3]; 70.4% in test [5]; 45% in test [6]. The molecule further came in with an inhibition in [7] of 55.7%. This molecule also registered an Inhibition in the test on Rattus norvegicus of 21.3%.
On to `O=C(O)/C=C/c1ccc(O)c(O)c1`, for which, in test [8], the Activity worked out at 45%.
Turning to `Cc1c(C(=O)/C=C/c2ccc3c(c2)OCO3)[n+]([O-])c2ccccc2[n+]1[O-]`, the Activity was found to be 96% in test [1], 1% in test [2] and 3% in test [5]. In [4], 31 µM corresponded to half-maximal inhibition (IC50). The molecule further came in with an Inhibition in the test with Rattus norvegicus of 4.5%.
As for `COc1cc(C2CC(c3c(C)[n+]([O-])c4ccccc4[n+]3[O-])=NN2)cc(OC)c1OC` (stereo not given), the Activity in [1] was determined as 93.4%; in test [2], 31%; in test [3], 46%; in test [5], 38%; in test [6], 42%. The molecule further registered an inhibition in test [7] of 67.3%. The molecule also had an Inhibition with Rattus norvegicus of 24.3%.
Take `COc1cc(/C=C/C(=O)c2c(C)[n+]([O-])c3ccc(F)cc3[n+]2[O-])ccc1O`: the Activity was 99.7% in test [1]; 45.3% in test [2]; 38.4% in test [3]; 52% in test [5]; 36.4% in test [6]. The same molecule yielded an IC50 in test [4] of 85 µM. Besides, the Inhibition with Rattus norvegicus stood at 36.3%.
For `Cc1c(C)c2c(c(C)c1O)CCC(C)(C(=O)O)O2` (stereo not given), the Activity in test [1] was 73.4%.
The molecule `COc1ccc2c(c1)c(CC(=O)O)c(C)n2C(=O)c1ccc(Cl)cc1` [INDOMETHACIN] showed an Inhibition in the test with Rattus norvegicus of 47%.
Regarding `COc1cc(/C=C/C(=O)c2c(C)[n+]([O-])c3ccccc3[n+]2[O-])cc(OC)c1OC`, the Activity in test [1] worked out at 99%; in [8], 100%. Besides, the IC50 in test [4] turned out to be 42 µM. In addition, the Inhibition in the test with Rattus norvegicus worked out at 55.4%.
`COc1cc(/C=C/C(=O)c2c(C)[n+]([O-])c3ccccc3[n+]2[O-])ccc1O`: the Activity was found to be 100% in test [1], 39.4% in [2], 56% in test [5] and 12.5% in test [8]. The molecule also returned an IC50 in test [4] of less than 1 µM. For the same molecule, the Inhibition in the test with Rattus norvegicus was determined as 56.1%.
